Experimental data: patent US10668108B2, “Compositions and methods of treating liver disease” (Children's Hospital Medical Center, priority 2016, dated 2020)
“Also recorded” adds a separate entry of the source.

Columns and labels:
HLO [1] = test: HLO survival assay, Intralipid exposed HLO (PNALD model); format: cell-based; details: added to 400 μM Intralipid exposed HLO (PNALD-HLO); FGF19 40 ng/ml
Text: PNALD is an iatrogenic fatty liver disease which occurs frequently in infants provided with parental nutrition (PN) solutions employing a lipid emulsion (Intralipid) that provide life-sustaining calories in the setting of inadequate absorption of enteral nutrients (Kumar and Teckman, 2015; Orso et al., 2016). PNALD has a histological evidence of steatosis, cell death (apoptosis), and fibrosis (Nandivada et al., 2013). To recapitulate PNALD pathology in HLO, we reconstituted components of Intralipid and placed it directly into HLO culture.
[…]; Kumar and Teckman, 2015; Neuschwander-Tetri et al., 2015). To implicate the therapeutic significance of OCA and FGF19 for PNALD like pathology in HLO, OCA and FGF19 were added to 400 μM Intralipid exposed HLO. […] Mechanistically, the accumulation of reactive oxygen species (ROS) is strongly associated with the fatty liver related hepatocyte death (Nandivada et al., 2013; Tsedensodnom and Sadler, 2013). We thus wondered whether OCA and FGF19 would inhibit the production of ROS so we sought to confirm that theory with live-cell imaging with CellROX dye. […]. […]
HLO survival assay. […] HLO were captured on The KEYENCE BZ-X710 Fluorescence Microscope every day. The surviving and dead organoids were counted manually from the photo. HLO with a rounded configuration was counted as the surviving while the organoids with out of shape is counted as dead. […]

HLO [2] = test: ROS live-cell imaging with CellROX dye in HLO; format: cell-based, human; details: for ROS production: 400 μM Intralipid treated HLO, live-cell imaging, CellROX
Text: Because there are no established ameliorative strategies, and PNALD is the leading indication for liver transplantation in infants (El Kasmi et al., 2013), we further investigated preventive and therapeutic effects of FXR agonist obeticholic acid (OCA) and FGF19 hormone that are activated by OCA, which have shown great potential in nonalcoholic steatohepatitis treatment (Dash et al., 2017; Kumar and Teckman, 2015; Neuschwander-Tetri et al., 2015). To implicate the therapeutic significance of OCA and FGF19 for PNALD like pathology in HLO, OCA and FGF19 were added to 400 μM Intralipid exposed HLO. […] Mechanistically, the accumulation of reactive oxygen species (ROS) is strongly associated with the fatty liver related hepatocyte death (Nandivada et al., 2013; Tsedensodnom and Sadler, 2013). We thus wondered whether OCA and FGF19 would inhibit the production of ROS so we sought to confirm that theory with live-cell imaging with CellROX dye.
Phagocyte, lipids, ROS live-cell imaging. After being cultured in an ultra-low attachment 6 multi-well plate, 5-10 HLO were picked up and seeded in a Microslide 8 Well Glass Bottom plate (Ibidi, WI, USA) and subjected to live-cell staining. The following antibodies were used: pHrodo® Red S. aureus Bioparticles® Conjugate for Phagocyte activity (Thermo Fisher Scientific Inc.), BODIPY® 493/503 for lipids (Thermo Fisher Scientific Inc.), Di-8-ANEPPS for membrane (Thermo Fisher Scientific Inc.), and CellROX green reagent for ROS detection (Thermo Fisher Scientific Inc.). Nuclear staining was marked by NucBlue Live ReadyProbes Reagent (Thermo Fisher Scientific Inc.). […] The final lipid droplet volume was calculated by IMARIS8 and normalized by each organoid size. Significance testing for lipid droplet volume and ROS production (%) was conducted by Student's t-test.

HLO [3] = test: HLO survival, 800 μM OA treated HLO (3D cell titer glo); format: cell-based, human; details: 800 μM OA + FGF19 40 ng/ml, same time point
Experimental: LPS and FFA exposure and OCA and FGF19 treatment. 20-30 hLOHLO, which had been isolated from Matrigel and washed by 1×PBS, were divided into each condition and cultured on an ultra-low attachment 6 multi-well plates (Corning). HLO were cultured with LPS (Sigma), OA (Sigma), LA (Sigma), SA (Sigma), or PA (Sigma) and collected at day 1 and 3 (for LPS HLO) and at day 3 and 5 (for OA) after the culture. To test the inhibitory effect of OCA (INT-747, MedChem Express, NJ, USA) and human FGF19 recombinant (Sigma) on HLO, 20-30 HLO were cultured in HCM media in the presence or absence of oleic acid (800 μM), and 1 μM OCA and 40 ng/ml FGF19 were added into 800 μM OA condition. HLO were collected at day 3 for lipids live-cell imaging and at day 5 for stiffness measurement.
HLO survival assay. HLO were collected from Matrigel and washed by 1×PBS. 30-40 organoids were cultured on an ultra-low attachment 6 multi-well plate (Corning). HLO were captured on The KEYENCE BZ-X710 Fluorescence Microscope every day. The surviving and dead organoids were counted manually from the photo. HLO with a rounded configuration was counted as the surviving while the organoids with out of shape is counted as dead. To assess the survival rate of OA treated HLO at the same time point, 3D cell titer glo assay was used (Promega, Wi, USA).

HLO [4] = test: HLO stiffness measurement by AFM; format: cell-based, human
Experimental: To further determine whether OCA and FGF19 have an impact on fibrosis, HLO stiffness was assessed. Organoid damage induced by Intralipid is extremely significant and treated HLOs for 5 days are not able to be stabilized on a dish, which is a minimal requirement for assessing the rigidity by AFM. To circumvent this limitation, the stiffness was assessed at Day3.
LPS and FFA exposure and OCA and FGF19 treatment. 20-30 hLOHLO, which had been isolated from Matrigel and washed by 1×PBS, were divided into each condition and cultured on an ultra-low attachment 6 multi-well plates (Corning). […]
HLO stiffness measurement by AFM. […] The AFM head with a silicon nitride cantilever (CSC37, k=0.3 N/m, MikroMasch, Bulgaria) was mounted on a fluorescence stereo microscope (M205 FA, Leica, Germany) coupled with a Z-axis piezo stage (JPK CellHesion module, JPK Instruments, Germany), which allows the indentation measurement up to the depth of ˜100 μm. […] The sample dish was then placed onto the AFM stage, and force-distance curves in a 14×14 matrix in a 25×25 μm square were measured from each HLO. Finally, Young's moduli (E, Pa) of HLOs were determined by fitting the obtained force-distance curves with the modified Hertz model (Sneddon, 1965). […]

Molecule	number of surviving organoids (HLO [1])	ROS production (HLO [2])	survival of 800 μM OA HLO (HLO [3])	effect on ROS production caused by 400 μM Int (HLO [2]; 400 μM Intralipid, FGF19 40 ng/ml)	stiffness of OA treated HLO (AFM) (HLO [4]; 800 μM OA + FGF19 40 ng/ml)	progression of fibrosis (HLO stiffness) (HLO [4]; Intralipid treated HLO, stiffness assessed at Day3)
CC[C@H]1[C@@H](O)[C@@H]2[C@H](CC[C@]3(C)[C@@H]([C@H](C)CCC(=O)O)CC[C@@H]23)[C@@]2(C)CC[C@@H](O)C[C@@H]12 [OCA, obeticholic acid, reference compound]	around 83%	20%	–	–	–	–
FGF19: human FGF19 recombinant (Sigma); hormone activated by OCA	~78%	30%	significantly improved	inhibit the ROS production	significantly softened; also recorded: decreased	reduce the progression of fibrosis
